In patent US20060111551A1, “Peptide having HTLV-1-specific CTL-inducing activity” (priority 2003, published 2006):

Tests used:
[1] = system: uncultured PBMC of recipient #37 and donor #36; test: IFN-γ ELISPOT assay of uncultured PBMC; assay type: cell-based, human; details: overnight incubation with 10 μg/ml peptide, mean±SD of triplicate
Excerpt: IFN-γ producing antigen-specific T cells were counted using IFN-γ-specific ELISPOT assays as previously described (J. Immunol. Methods 191, 131-142, 1996; J. Exp. Med. 186, 859-865, 1997). […] After 10-min reaction with BICP/NBT alkaline phosphatase substrate (SIGMA), colored spots on the dried membranes were counted using a KS-ELISPOT microscopy system (Carl Zeiss, Jena, Germany).
It was next investigated whether there are any qualitative or quantitative differences in HTLV-I-specific CTL responses among pre-HSCT #37, post-HSCT #37, and donor #36. To examine HTLV-I-specific CTL precursor cell number without experimental biases by in vitro culture, frozen stored PBMC were immediately subjected to ELISPOT assay for IFN-γ production. The results of CTL precursor in the uncultured PBMC of recipient #37 and donor #36 responding to ILT-#37 or Tax epitope are shown in Table 1. […] Values represent the mean±SD of triplicate assays. Further, the results of ELISPOT assay of IFN-γ are shown by spot forming cells (SFC) per 10^5 PBMC.

[2] = system: CTL line of post-HSCT patient #37; details: LCL-#36 cells pulsed with 10 mM peptide; effector-to-target ratio 10; FIG. 3
Experimental: Values represent the mean of specific lysis of triplicate assays.
Cytotoxic activities were measured by 6-hour ^51Cr-release assay at various effector-to-target (E/T) cell ratios as described previously (J. Natl. Cancer Inst. 93, 1775-1783, 2001; J. Virol. 76, 7010-7019, 2002). Specific cytotoxicity was calculated as ([experimental ^51Cr release−spontaneous ^51Cr release]/[maximum ^51Cr release−spontaneous ^51Cr release]×100%).

[3] = system: CTL induced from post-HSCT patient R07; details: HLA-A24+ TOK cells pulsed with peptide; effector-to-target ratio 8; 18 hours; FIG. 5
Experimental: Following 18 hours of incubation, IFN-γ in the supernatant was measured by ELISA assay. Values represent the mean of duplicate assays.
IFN-γ production by the effector cells was measured by ELISA (Human IFN-γ ELISA Kit; Endogen, Woburn, Mass.) following 18 hours of incubation with target cells at various E/T ratios in duplicate.
Subsequently, epitope mapping of these CTL was performed. […] The present inventors stained these cultured PBMCs with the tetramer of HLA-A*2402/Tax301-309.

In the case of “LLFEEYTNI [Tax307-315, synthetic oligopeptide of HTLV-I Tax]”, the “IFN-γ-producing SFC/10^5 PBMC, Donor #36” value ([1]; PBMC of donor #36) was 1 ± 0.6 SFC/10^5 PBMC, the “IFN-γ-producing SFC/10^5 PBMC, Post-HSCT #37” value ([1]; PBMC of post-HSCT patient #37) was 2 ± 1 SFC/10^5 PBMC and the “IFN-γ-producing SFC/10^5 PBMC, Pre-HSCT #37” value ([1]; PBMC of pre-HSCT patient #37) was 18 ± 2 SFC/10^5 PBMC.

In the case of MAHFPGFGQSLLFGYPVYVFGDCV [Tax1-24], the “killing of peptide-pulsed LCL-#36 cells by CTL line of post-HSCT patient #37” value [2] was “selectively killed”.

SFHSLHLLFEEYTNI [Tax301-315] was tested, and the “reaction with responder cells (IFN-γ production against peptide-pulsed TOK cells)” value [3] was “selectively reacted”.
